9 compounds from patent publication US7217704B2, “LPA receptor agonists and antagonists and methods of use” (The University of Tennessee Research Foundation, priority 2003, dated 2007) can be followed below.

Like-named read-outs stand apart in the source and are kept apart here.

One assay deals with T1, LPA3 (Homo sapiens, UniProt Q9UBY5).
T1 construct: expressed in transfected cells
T1 sequence (Q9UBY5 1-353): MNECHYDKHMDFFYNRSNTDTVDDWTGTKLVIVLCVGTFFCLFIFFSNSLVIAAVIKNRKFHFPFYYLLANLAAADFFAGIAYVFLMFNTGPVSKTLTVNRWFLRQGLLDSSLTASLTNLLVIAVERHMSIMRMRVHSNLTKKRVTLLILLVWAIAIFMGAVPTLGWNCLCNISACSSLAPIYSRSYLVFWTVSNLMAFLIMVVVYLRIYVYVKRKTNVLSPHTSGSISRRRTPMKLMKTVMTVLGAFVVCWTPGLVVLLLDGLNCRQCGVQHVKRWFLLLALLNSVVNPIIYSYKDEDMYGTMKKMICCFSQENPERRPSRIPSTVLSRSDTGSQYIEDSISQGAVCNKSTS
Kind of assay: Ca2+ transients (agonism / inhibition of LPA response) in RH7777 cells stably expressing LPA3. It is filed as cell-based. As for the experimental part: (§1) The culture medium (DMEM containing 10% FBS) was then replaced with modified Krebs solution (120 mM NaCl, 5 mM KCl, 0.62 mM MgSO4, 1.8 mM CaCl2, 10 mM HEPES, 6 mM glucose, pH 7.4) and the cells were serum starved for 6–8 hours (12 h for PC-3 cells). Cells were loaded with Fura-2 AM for 35 minutes in modified Krebs medium. The Fura-2 was removed before loading the plate in the FlexStation instrument by replacing the medium once again with 100 μl modified Krebs medium/well. Plates were incubated for 4 minutes in the instrument to allow for warming to 37° C. Changes in intracellular Ca^2+ concentration were monitored by measuring the ratio of emitted light intensity at 520 nm in response to excitation by 340 nm and 380 nm wavelength lights, respectively. Each well was monitored for 80–120 seconds. […] Time courses were recorded using the SoftMax Pro software (Molecular Devices, Sunnyvale, Calif.). Ca^2+ transients were quantified automatically by calculating the difference between maximum and baseline ratio values for each well.
(§2) Each FAP analog was tested for the ability to induce Ca^2+ transients in RH7777 cells transfected with LPA1-3 receptors (agonism), as well as the ability to inhibit LPAinduced Ca^2+ transients in the same cells (antagonism) (Table 3).

For a further assay, the target named is T2, LPA2 (Homo sapiens, UniProt Q9HBW0).
T2 construct: expressed in transfected cells
Briefly: Ca2+ transients (agonism / inhibition of LPA response) in RH7777 cells stably expressing LPA2. It is filed as cell-based. As to the method: as §1, §2

The target of a further assay is T3, LPA1 (Homo sapiens, UniProt Q92633).
T3 construct: expressed in transfected cells
Briefly: Ca2+ transients (agonism / inhibition of LPA response) in RH7777 cells stably expressing LPA1. In kind it is cell-based. As for the experimental part:
as §1, §2

The test system of another assay is PC-3 cells. Kind of assay: Ca2+ transients in PC-3 cells endogenously expressing LPA1-3. In kind it is cell-based, human. As to the method:
as §1
We tested the FAP analogs in PC-3 cells, which unlike the transfected RH7777 cells endogenously express LPA1-3 receptors.

Setting [1] is: induction of Ca2+ transients, RH7777 cells expressing LPA3, read-out: LPA3 EC50.
The mark [2] stands for this setting: inhibition of LPA-induced Ca2+ transients, RH7777 cells expressing LPA3, read-out: LPA3 (Ki).
The mark [3] stands for this setting: inhibition of LPA-induced Ca2+ transients, RH7777 cells expressing LPA3, read-out: LPA3 IC50.
[4] abbreviates: RH7777, maximal efficacy of the drug/maximal efficacy of LPA 18:1, read-out: LPA2 (Emax).
Setting [5] is: induction of Ca2+ transients, RH7777 cells expressing LPA2, read-out: LPA2 EC50.
[6] abbreviates: inhibition of LPA-induced Ca2+ transients, RH7777 cells expressing LPA2, read-out: LPA2 IC50.
The mark [7] stands for this setting: Homo sapiens, PC-3, read-out: PC-3 IC50.
Where [8] appears, read: inhibition of LPA-induced Ca2+ transients, PC-3 cells.
The mark [9] stands for this setting: induction of Ca2+ transients, RH7777 cells expressing LPA1, read-out: LPA1 EC50.
Setting [10] is: inhibition of LPA-induced Ca2+ transients, RH7777 cells expressing LPA1, read-out: LPA1 IC50.
[11] abbreviates: Homo sapiens, inhibition of LPA-induced Ca2+ transients, PC-3 cells, read-out: PC-3 IC50.

T3 sequence (Q92633 whole entry): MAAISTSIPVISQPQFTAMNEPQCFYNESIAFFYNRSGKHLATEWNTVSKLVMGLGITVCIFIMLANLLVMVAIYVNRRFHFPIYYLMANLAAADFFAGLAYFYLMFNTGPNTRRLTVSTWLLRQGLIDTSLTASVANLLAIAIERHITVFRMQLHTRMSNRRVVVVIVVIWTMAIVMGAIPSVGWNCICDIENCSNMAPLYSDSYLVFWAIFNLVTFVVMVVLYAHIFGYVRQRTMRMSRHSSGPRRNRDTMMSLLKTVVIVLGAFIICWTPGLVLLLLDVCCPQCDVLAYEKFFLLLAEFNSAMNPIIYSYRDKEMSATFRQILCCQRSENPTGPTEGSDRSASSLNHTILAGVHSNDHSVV
T2 sequence (Q9HBW0 whole entry): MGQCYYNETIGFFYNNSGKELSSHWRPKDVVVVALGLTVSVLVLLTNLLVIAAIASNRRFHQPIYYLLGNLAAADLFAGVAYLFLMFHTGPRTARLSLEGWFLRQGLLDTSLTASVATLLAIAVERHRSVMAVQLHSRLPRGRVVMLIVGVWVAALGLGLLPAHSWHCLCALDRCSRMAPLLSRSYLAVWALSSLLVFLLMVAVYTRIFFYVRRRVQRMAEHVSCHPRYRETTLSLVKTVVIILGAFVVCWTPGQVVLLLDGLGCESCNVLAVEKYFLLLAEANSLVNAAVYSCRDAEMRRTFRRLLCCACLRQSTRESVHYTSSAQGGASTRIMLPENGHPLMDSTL

As for `CCC=CCCCCCCCCCCOP(=O)(O)O` [Compound 5e, Phosphoric acid monotetradec-11-enyl ester], the EC50 (in general, the concentration giving half of the maximal effect) on LPA3 (setting [1]) was over 30000 nM; on LPA2 (setting [5]), 4100 nM. On LPA3 (setting [2]), the Ki (in general, a measure of affinity in units of concentration, obtained from inhibition or displacement) was 40 nM. The IC50 (as a rule, the concentration that inhibits the measured activity by half) on LPA3 (setting [3]) was 103 nM; at LPA2 (setting [6]) it was over 30000 nM. Further, at LPA2 (setting [4]), the Emax – broadly, the greatest response seen or fitted, relative to the assay's reference – was 75%.

Regarding `CCC=CCCCCCCCCOP(O)(O)=S` [Compound 8e, Thiophosphoric acid O-dodec-9-enyl ester], the results for the EC50 on LPA3, on LPA1 and on LPA2 were over 30000 nM, over 30000 nM and 677 nM, respectively. The half-maximal inhibitory concentration (IC50) at LPA3 is 27 nM; at LPA1 it was over 30000 nM; on LPA2 it was over 30000 nM; with PC-3 cells (setting [7]), 2970 nM. Moreover, the results for the Ki at LPA3 and with PC-3 cells (setting [8]) were 14 nM and 1460 nM, respectively. The “effect at LPA3 in words” value at LPA3 (Ca2+ transients, RH7777 cells expressing LPA3) was “equipotent antagonist as 8f”. Moreover, the Emax at LPA2 (RH7777, read-out: LPA2 (Emax)) was determined as 100%; in the assay with PC-3 cells (Homo sapiens, PC-3, read-out: PC-3 (Emax)) it was 27%. The “effect in PC-3 cells in words” value with PC-3 cells (Ca2+ transients, PC-3 cells) is “both independent activation and inhibition of LPA-induced Ca^2+ transients”.

`CCCCCCCCCCCCCCC(F)(F)P(=O)(O)O` [Compound 11, (1,1-Difluoro-pentadecyl) Phosphonic Acid]: the EC50 at LPA3 (setting [1]) is over 30000 nM; at LPA1 (setting [9]) it was over 30000 nM; at LPA2 (RH7777 cells expressing LPA2, read-out: LPA2 EC50), 10000 nM. For the same compound, the Ki is 575 nM at LPA3 (setting [2]) and 788 nM on LPA1 (inhibition of LPA-induced Ca2+ transients, RH7777 cells expressing LPA1). Also, the IC50 at LPA3 (setting [3]) was 1510 nM; on LPA1 (setting [10]) it was 2500 nM; on LPA2 (setting [6]), over 30000 nM. Also, the “inhibition of LPA response at LPA1 (partial antagonism)” value at LPA1 (maximal inhibition) is listed as 40%. At LPA2 (setting [4]), the Emax amounted to 40%.

For the compound `CCC=CCCCCCCCCOP(=O)(O)O` [Compound 5c, Phosphoric acid monododec-9-enyl ester], the EC50 on LPA3 (setting [1]) was over 30000 nM; at LPA1 (setting [9]) it was over 30000 nM; on LPA2 (setting [5]), 717 nM. In addition, the Ki on LPA3 (setting [2]) amounted to 27 nM; with PC-3 cells (setting [8]) it was 390 nM. Moreover, the IC50 on LPA3 (setting [3]) was 32 nM; at LPA1 (setting [10]), over 10000 nM; on LPA2 (setting [6]), over 30000 nM; in the assay on PC-3 cells (setting [11]) it was 916 nM.

For the compound `CCCCCCCCCCCCOP(O)(O)=S` [Compound 8b, Thiophosphoric acid O-dodecyl ester], the EC50 on LPA3 and on LPA1 was over 30000 nM throughout. In addition, the Ki is 14 nM at LPA3 (setting [2]) and 1300 nM with PC-3 cells (setting [8]). Moreover, the concentration for half-maximal inhibition (IC50) is 28 nM on LPA3 (setting [3]), over 30000 nM against LPA1 and 2840 nM with PC-3 cells (setting [7]).

Consider `CCCCC=CCCCCCCCCOP(=O)(O)O` [Compound 5d, Phosphoric acid monotetradec-9-enyl ester], for which the EC50 was over 30000 nM at LPA3 (setting [1]) and 397 nM on LPA2 (setting [5]). Besides, the Ki was 58 nM at LPA3 (setting [2]) and 123 nM in the assay with PC-3 cells (setting [8]). Besides, the values for the IC50 on LPA3 (setting [3]), at LPA2 (setting [6]) and in the assay with PC-3 cells (setting [11]) were 96 nM, over 30000 nM and 241 nM, respectively. In addition, the maximum response (Emax) at LPA2 (setting [4]) is 58%.

As to `CCCCCCCCCCCCCCOP(O)(O)=S` [Compound 8c, Thiophosphoric acid O-tetradecyl ester], the EC50 on LPA3 is over 30000 nM; at LPA1, over 30000 nM; with PC-3 cells (Homo sapiens, PC-3, read-out: PC-3 EC50), over 30000 nM. The Ki on LPA3 (setting [2]) is 76 nM. Also, the IC50 was 162 nM on LPA3 (setting [3]), over 30000 nM at LPA1 and over 30000 nM in the assay on PC-3 cells (setting [7]).

For `CCCCCCCCCCOP(O)(O)=S` [Compound 8a, Thiophosphoric acid O-decyl ester], the EC50 at LPA3 and on LPA1 was over 30000 nM throughout. For the same compound, the Ki on LPA3 (setting [2]) was 49 nM; in the assay with PC-3 cells (setting [8]) it was 521 nM. For the same compound, the IC50 at LPA3 (setting [3]) was 122 nM; against LPA1 it was over 30000 nM; in the assay on PC-3 cells (setting [7]), 1220 nM.

Take `CCCCCCCCOC[C@@H](COP(O)(O)=S)OCCCCCCCC` [(S) enantiomer]: the IC50 at LPA1 (for 200 nM LPA, formula (VII)A enantiomer, method not stated at b93, read-out: IC50 for LPA1) was 184 nM.
